Tests used:
Assay type in all cases: cell-based
[1] = tested on: Streptococcus pyogenes C203; assay: MIC, standard broth micro-dilution assay, SPY C203; parameters: unit not given here
Method: (§1) The antibacterial efficacy of the present compounds is illustrated by Table II. The minimal inhibitory concentrations (MICs) were determined using a standard broth micro-dilution assay.

[2] = tested on: Staphylococcus epidermidis 270; assay: MIC, standard broth micro-dilution assay, SE 270; parameters: unit not given here
Method: as §1

[3] = tested on: Staphylococcus haemolyticus 105; assay: MIC, standard broth micro-dilution assay, SH 105; parameters: unit not given here
Method: as §1

[4] = tested on: Streptococcus pneumoniae P1; assay: MIC, standard broth micro-dilution assay, SPN P1; parameters: unit not given here
Method: as §1

[5] = tested on: Staphylococcus aureus 447; assay: MIC, standard broth micro-dilution assay, SA 447; parameters: unit not given here
Method: as §1

[6] = tested on: Enterococcus faecium and faecalis (SENSITIVE); assay: MIC, standard broth micro-dilution assay, SENSITIVE enterococci; parameters: unit not given here; conditions: geometric mean of 4-6 isolates
Method: as §1

[7] = tested on: Enterococcus faecium and faecalis (RESISTANT); conditions: geometric mean of 4-6 isolates
Method: as §1

[8] = tested on: Staphylococcus aureus 489; assay: MIC, standard broth micro-dilution assay, SA 489; parameters: unit not given here
Method: as §1

[9] = tested on: Staphylococcus haemolyticus 415; assay: MIC, standard broth micro-dilution assay, SH 415; parameters: unit not given here
Method: as §1

[10] = tested on: Staphylococcus aureus 446; assay: MIC, standard broth micro-dilution assay, SA 446; parameters: unit not given here
Method: as §1

Compound: C[C@@H]1O[C@@H](O[C@H]2[C@H](Oc3c4cc5cc3Oc3ccc(cc3Cl)[C@@H](O[C@H]3C[C@](C)(N)[C@@H](O)[C@H](C)O3)[C@@H]3NC(=O)[C@H](NC(=O)[C@@H]5NC(=O)[C@H](CC(N)=O)NC(=O)[C@H](NCc5ccc(-c6ccccc6)cc5)[C@H](O)c5ccc(c(Cl)c5)O4)c4ccc(O)c(c4)-c4c(O)cc(O)cc4[C@@H](C(=O)O)NC3=O)O[C@H](CO)[C@@H](O)[C@@H]2O)C[C@](C)(N)[C@H]1O [Example 3, N^1- (p-PHENYLBENZYL)-DESLEUCYL-A82846B]
- Minimal Inhibitory Concentration (MIC) SPY C203 [1]: ≤ .06
- Minimal Inhibitory Concentration (MIC) SE 270 [2]: 8
- Minimal Inhibitory Concentration (MIC) SH 105 [3]: 8
- Minimal Inhibitory Concentration (MIC) SPN P1 [4]: ≤ .06
- Minimal Inhibitory Concentration (MIC) SA 447 [5]: 8
- Minimal Inhibitory Concentration (MIC) SENSITIVE [6]: 21
- Minimal Inhibitory Concentration (MIC) RESISTANT [7]: > 128
- Minimal Inhibitory Concentration (MIC) SA 489 [8]: 8
- Minimal Inhibitory Concentration (MIC) SH 415 [9]: 16
- Minimal Inhibitory Concentration (MIC) SA 446 [10]: 8

Compound: CCCCCCN[C@H]1C(=O)N[C@@H](CC(N)=O)C(=O)N[C@H]2C(=O)N[C@H]3C(=O)N[C@H](C(=O)N[C@H](C(=O)O)c4cc(O)cc(O)c4-c4cc3ccc4O)[C@H](O[C@H]3C[C@](C)(N)[C@@H](O)[C@H](C)O3)c3ccc(c(Cl)c3)Oc3cc2cc(c3O[C@@H]2O[C@H](CO)[C@@H](O)[C@H](O)[C@H]2O[C@H]2C[C@](C)(NCCCCCC)[C@@H](O)[C@H](C)O2)Oc2ccc(cc2Cl)[C@H]1O [Example 7, N^1,N^DISACC -DIHEXYLDESLEUCYL-A82846B]
- Minimal Inhibitory Concentration (MIC) SPY C203 [1]: 8
- Minimal Inhibitory Concentration (MIC) SE 270 [2]: 16
- Minimal Inhibitory Concentration (MIC) SH 105 [3]: 4
- Minimal Inhibitory Concentration (MIC) SPN P1 [4]: 8
- Minimal Inhibitory Concentration (MIC) SA 447 [5]: 8
- Minimal Inhibitory Concentration (MIC) SENSITIVE [6]: 111
- Minimal Inhibitory Concentration (MIC) RESISTANT [7]: > 128
- Minimal Inhibitory Concentration (MIC) SA 489 [8]: 8
- Minimal Inhibitory Concentration (MIC) SH 415 [9]: 8
- Minimal Inhibitory Concentration (MIC) SA 446 [10]: 16

Compound: C[C@@H]1O[C@@H](O[C@@H]2c3ccc(c(Cl)c3)Oc3cc4cc(c3O[C@@H]3O[C@H](CO)[C@@H](O)[C@H](O)[C@H]3O[C@H]3C[C@](C)(NCCCCCCc5ccccc5)[C@@H](O)[C@H](C)O3)Oc3ccc(cc3Cl)[C@@H](O)[C@@H](NCCCCCCc3ccccc3)C(=O)N[C@@H](CC(N)=O)C(=O)N[C@H]4C(=O)N[C@H]3C(=O)N[C@@H]2C(=O)N[C@H](C(=O)O)c2cc(O)cc(O)c2-c2cc3ccc2O)C[C@](C)(N)[C@H]1O [Example 15, N^1,N^DISACC -BIS(6-PHENYL-n-HEXYL) -DESLEUCYL-A82846B]
- Minimal Inhibitory Concentration (MIC) SPY C203 [1]: 0.125
- Minimal Inhibitory Concentration (MIC) SE 270 [2]: 2
- Minimal Inhibitory Concentration (MIC) SH 105 [3]: 1
- Minimal Inhibitory Concentration (MIC) SPN P1 [4]: 0.5
- Minimal Inhibitory Concentration (MIC) SA 447 [5]: 2
- Minimal Inhibitory Concentration (MIC) SENSITIVE [6]: 6
- Minimal Inhibitory Concentration (MIC) RESISTANT [7]: 8
- Minimal Inhibitory Concentration (MIC) SA 489 [8]: 2
- Minimal Inhibitory Concentration (MIC) SH 415 [9]: 2
- Minimal Inhibitory Concentration (MIC) SA 446 [10]: 4

Compound: C[C@@H]1O[C@@H](O[C@@H]2c3ccc(c(Cl)c3)Oc3cc4cc(c3O[C@@H]3O[C@H](CO)[C@@H](O)[C@H](O)[C@H]3O[C@H]3C[C@](C)(NCc5ccc(O)cc5)[C@@H](O)[C@H](C)O3)Oc3ccc(cc3Cl)[C@@H](O)[C@@H](NCc3ccc(O)cc3)C(=O)N[C@@H](CC(N)=O)C(=O)N[C@H]4C(=O)N[C@H]3C(=O)N[C@@H]2C(=O)N[C@H](C(=O)O)c2cc(O)cc(O)c2-c2cc3ccc2O)C[C@](C)(N)[C@H]1O [Example 9, N^1,N^DISACC -BIS(p-HYDROXYBENZYL)-DESLEUCYL-A82846B]
- Minimal Inhibitory Concentration (MIC) SPY C203 [1]: 16
- Minimal Inhibitory Concentration (MIC) SE 270 [2]: 32
- Minimal Inhibitory Concentration (MIC) SH 105 [3]: 32
- Minimal Inhibitory Concentration (MIC) SPN P1 [4]: 32
- Minimal Inhibitory Concentration (MIC) SA 447 [5]: 16
- Minimal Inhibitory Concentration (MIC) SENSITIVE [6]: > 128
- Minimal Inhibitory Concentration (MIC) RESISTANT [7]: > 128
- Minimal Inhibitory Concentration (MIC) SA 489 [8]: 16
- Minimal Inhibitory Concentration (MIC) SH 415 [9]: 32
- Minimal Inhibitory Concentration (MIC) SA 446 [10]: 16
